Values after ≈ are worked out from the molar mass of the structure shown. Where two headings read alike, the source gives them in different places.
Experiments:
[1] = Solubility in Octanol, water and pH media; type: physicochemical
Procedure: (§1) The solubility and log P of acetyl ChrysinMannich base derivatives see TABLE 1.
(§2) CH-j is pKa 5.3, log P 1.63 in Octanol/Water at 37° C. […] (BA-j 77m/ml). CH-j belongs to BCS II (low solubility, high permeability) and solubility presents the pH dependence. […] CH-j is a pH dependent fast release. […] It is speculated that CH-j has more appropriate log P and solubility with more likely entering tissue cells than others solubility acetyl Chrysin Mannich base derivatives.
(§3) (about 20 times BA-f 277 μg/ml) and 564 μg/ml in water at 37° C. (about 1000 times BA-f 0.53m/ml). CH-f is BCS I (high solubility and permeability) and solubility presents the pH dependence. It is speculated that CH-f has more appropriate log P and solubility with entering systemic (blood system and tissue cells) than others solubility acetyl Chrysin Mannich base derivatives.

log P in Octanol/Water = type: physicochemical; conditions: octanol/water, Octanol/Water at 37° C.
Procedure: as §1, §2, §3

pKa = type: physicochemical
Procedure: as §2, §3

[2] = test system: PBMCs, activated lymphocytes, human normal Liver cells; assay: H2O2 level in blood and normal cells, PF1-H2O2 fluorescent probe; type: cell-based; conditions: CH-j: PBMCs and activated lymphocytes; BA-j: activated lymphocyte
Procedure: The cells are cancer cells (MCF-7, GBC-823, Hep G2) and normal cells (Liver, COS-7, PBMCs). According to the literature [Scientific Reports, 2015, 5: 13626; Anti-cancer Agents in Medicinal Chemistry, 2016, 16: 914-924.], in vitro cultured cells was given to CH-j 25 μM for 3.5 h, added PF1-H2O2 selective fluorescence probe 10 μM for 0.5 h and detected the concentration of H2O2 in cells, and performed fluorescence imaging by results shown in FIG. 1.
FIG. 1-3, FIG. 1-4, The fluorescence imaging by PF1-H2O2 10 μM is that CH-j […] for 4 h affected the level of H2O2 in MCF-7, GBC-823, Hep G2 and Liver.
FIG. 1-3: CH-j/BA-j affects the levels of H2O2 in blood cells, X-coordinate is the concentration of CH-j/BA-j concentration (μM), and Y-coordinate the intracellular levels of H2O2 (μM) for 4 h with PF1-H2O2 10 μM by Fluorescence Microplater Reader (488 nm/525 nm).

H-460 = assay: Anti-cancer cells proliferation activity (MTT, 48 h); type: cell-based; conditions: Homo sapiens, NCI-H460, H-460, MTT
Description: (§4) Anti-cancer cells proliferationactivity of in vitro CH-j and CH-f were shown in TABLE 2 for the results of the screening of 5 cancers cells.

Hep G2 = assay: as above; type: cell-based; conditions: Homo sapiens, HepG2
Description: as §4

MCF-7 [3] = assay: as above; type: cell-based; conditions: Homo sapiens, MCF7, MCF-7, MTT
Description: as §4

PC-3 = assay: as above; type: cell-based; conditions: Homo sapiens, PC-3, MTT
Description: as §4

BGC-823 = assay: as above; type: cell-based; conditions: Homo sapiens, BGC-823, MTT
Procedure: as §4
FIG. 2: The initial screening results of the anticancer activity of BGC-823 (MTT, for 48 h), and X-coordinate is the drug concentration (MTT, for 48 h), and Y-coordinate the cell survival rate (%) in vitro.

[4] = test system: 5 cancers cells (MCF-7, H-460, BGC-823, PC-3, Hep G2); assay: Anti-cancer cells proliferation activity, average of 5 cancer cells; type: cell-based; conditions: for IC50: average of 5 cancer cells
Description: as §4

MCF-7 [5] = assay: Autophagy in MCF-7; type: cell-based; conditions: 50 μM for 9 h and 24 h
[6] = Protein binding rate and reversible binding rate; type: in vitro ADME; conditions: plasma proteins
Procedure: (§5) The combination of drugs and plasma proteins is usually reversible, and the affinity strength is determined by the reversible binding rate of the drug-protein complex. Only free drugs can spread to the tissue through the lipid membrane. By modifying the structure of the drug, the effect of the drug on the target site can be improved by improving the reversible binding rate of the drug-protein complex.
(§6) The acidic part of polyphenol hydroxyl group is combined with lysine alkaline site in albumin structure. The protein binding rate and reversible binding rate of CH-j see TABLE 2.

plasma proteins = assay: Protein binding rate and reversible binding rate; type: in vitro ADME
Procedure: as §5, §6

[7] = Pharmacokinetics by oral in monkey (urine drug concentration-time curve); type: in vivo; conditions: monkey (n = 6), 3 mg/kg in Table 4, 5 mg/kg in text
Procedure: Chromatographic conditions and the system applies: with C18 chromatographic column (acid the tall secretory effect, 5 μm, 4.6*150 mm), in acetonitrile-methanol-water-mesylate (25:20:55:0.15) as mobile phase, detection UV 283 nm, the velocity 1 ml/min, and the sample volume 20 μl. The theoretical plate number is not less than 2000 according to CH-j peak.
Sample solution: after the macaques were drugged, the catheter was inserted. The urine by oral CH-j 5 mg/kg is collected, added the methanol at 1:4 (v:v), centrifuge and remove the liquid to measure. Control solution is CH-j methanol solution 5 μg/ml. The log P of CH-j is larger, the fat solubility strong, and absorption distribution in the body very rapid, the urine drug concentration-time curve consistent with the typical two-compartment model. Tmax1, 1.3 h, Cmax1 is […]. […] The apparent distribution volume (Vd) 42 L, mainly distributed in body fluid (BA-j Vd 12.6 L, mainly distributed in blood. See Fitoterapia, 2015, 107: 36-34)
FIG. 5: The concentration of urine drug concentration-time curve in monkey (n=6) by CH-j oral 5 mg/kg, X-coordinate is oral CH-j time (h) and Y-coordinate is the concentration of CH-j (μM).

[8] = Tissue distribution in rat, 2 h; type: in vivo; conditions: rat
Procedure: The distribution results of CH-j tissue distribution were shown in FIG. 6, when CH-j 100 mg/kg rat by venous intravenous (i.v.) or oral (p.o.) 2 h. […] CH-j by oral in the stomach concentration of the large, about 2 time higher than other tissues. […] Compared with the intravenous administration, the oral administration was completely absorbed and the bioavailability was close to 100%.
FIG. 6: 2 h distribution of the drug (100 mg/kg) by CH-j rats: Y-coordinate is the concentration of CH-j (μg/g), by intravenous (i.v.), by oral (p.o.).

CDK1 = CDK1 (Homo sapiens, UniProt P06493); assay: CDK1 inhibition activity; type: biochemical; conditions: for CDK1 50% inhibitory concentration: read-out: inhibiting CDK1 CC50
[9] = BA-j, see Fitoterapia, 2015; cited from earlier work
[10] = Pharmacokinetics by oral in monkey (urine drug concentration-time curve); type: in vivo; conditions: rhesus, monkey (n = 6), 3 mg/kg
[11] = oral, liver first pass effect; cited from earlier work
MCF-7 and COS-7 = assay: NO level, Rh-NO fluorescent probe imaging; type: cell-based; conditions: 25 μM for 12, 24, 48 h, Rh-NO probe 5 μM
Procedure: [Organic Letters, 2008, 10: 2357-2360] […] This is because of cycloalkylamine-methyl releasing NO by Cope reaction, and the higher level of NO 4-methylpiperazine than 4-hydroxypiperidine.
FIG. 1-6: The performed fluorescence imaging with Rh—NO 5 μM, and add 25 μM of CH-j and CH-f for 12, 24, 48 h, affected the level of NO for 12, 24 and 48 h in MCF-7 and COS-7 by Single beam electron confocal fluorescence microscope (488/604 nm).

MCF-7 [12] = assay: Hoechst 33258 fluorescence staining, apoptosis; type: cell-based; conditions: 0, 5, 10, 20 μM for 24 h
Procedure: Hoechst 33258 is an active fluorescent dye with DNA specific binding, which is mainly combined with base area of DNA, which emits blue fluorescence when stimulated by ultraviolet light. The living cells emit uniform fluorescence, the apoptotic cells are bright blue fluorescence due to their chromatin fixation, dense and concentrated nuclei.
MCF-7 was treated with 0, 5, 10, 20 μM of CH-f and CH-j for 24 h, Hoechst 33258 fluorescence staining, and cell morphological changes were shown in FIG. 3-1. […] CH-f and CH-j are completely different from the cytotoxic drug HCPT, which appears to be apoptotic at low doses and necrotic at high doses in BGC-823.
FIG. 3-1 Hoechst 33258 staining results for MCF-7.

Bcl-2 = Bcl-2 expression in MCF-7; type: cell-based; conditions: 10 μM for 24 h
[13] = in vivo; cited from earlier work
[14] = organic solvent or mixture, Octanol, 37° C., read-out: Solubility in Octanol

Chain of CDK1 (P06493 whole entry, species assumed): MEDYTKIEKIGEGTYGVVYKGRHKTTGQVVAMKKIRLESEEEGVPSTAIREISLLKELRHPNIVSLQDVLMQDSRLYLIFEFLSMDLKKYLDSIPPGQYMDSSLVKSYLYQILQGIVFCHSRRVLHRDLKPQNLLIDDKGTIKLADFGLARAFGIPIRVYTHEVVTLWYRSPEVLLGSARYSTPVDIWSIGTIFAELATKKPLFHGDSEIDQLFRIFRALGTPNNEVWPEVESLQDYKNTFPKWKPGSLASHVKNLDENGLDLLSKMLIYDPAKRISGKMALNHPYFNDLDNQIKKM
Chain of CDK1 (P14635 whole entry partner, species assumed): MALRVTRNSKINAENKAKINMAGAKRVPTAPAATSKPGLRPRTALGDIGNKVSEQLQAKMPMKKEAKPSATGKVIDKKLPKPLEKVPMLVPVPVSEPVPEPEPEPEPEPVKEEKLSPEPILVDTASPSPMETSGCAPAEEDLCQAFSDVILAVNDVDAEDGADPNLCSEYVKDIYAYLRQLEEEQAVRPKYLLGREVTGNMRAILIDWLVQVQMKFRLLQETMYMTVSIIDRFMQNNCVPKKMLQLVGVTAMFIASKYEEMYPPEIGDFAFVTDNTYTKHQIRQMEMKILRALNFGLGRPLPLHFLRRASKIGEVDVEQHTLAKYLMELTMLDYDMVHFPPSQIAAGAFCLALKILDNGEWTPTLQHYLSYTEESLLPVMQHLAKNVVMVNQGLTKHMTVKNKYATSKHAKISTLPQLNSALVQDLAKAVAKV

Molecule `O=c1cc(-c2ccccc2)oc2c(CN3CCC(O)CC3)c(O)c(O)c(O)c12` [BA-j, 5,6,7-trihydroxy-8-(4-hydroxy-piperidin-1-ylmethyl)-2-phenyl-chromen-4-one, reference compound] has a solubility [1, 14] of 377 µg/mL (≈ 983 µM), a solubility ([1]; water, 37° C., text values of BA-j and BA-f, read-out: Solubility in water) of 77 µg/mL (≈ 201 µM) and a logP (log P in Octanol/Water) of 0.69. The pKa (pKa) was 5.5, the “Dose dependence of H2O2 level” value [2] was “significant dose-dependent manner, with mass apoptosis and without necrosis” and the IC50 (H-460) was 13.7 ± 1.83 µM. For the same molecule, the IC50 (Hep G2) was 15.7 ± 1.3 µM, the IC50 (MCF-7 [3]) was 10.6 ± 0.3 µM and the IC50 (PC-3) was 12.8 ± 2.06 µM. It also gave an IC50 (BGC-823) of 12.3 ± 1.73 µM, an IC50 [4] of 4.7 µg/mL and an IC50 ([4]; MTT, 48 h) of 12.3 µM. For the same molecule, the Autophagy (MCF-7 [5]) was “without”, the fraction unbound ([6]; average of 3 concentrations, read-out: Protein binding rate AV (converted)) was 0.082 and the fraction unbound at 12.5 μg/ml ([6]; drug concentration 12.5 μg/ml) was 0.067. The fraction unbound at 25 μg/ml ([6]; drug concentration 25 μg/ml) was 0.075, the fraction unbound at 50 μg/ml ([6]; drug concentration 50 μg/ml) was 0.104 and the “Reversie binding rate AV” value (plasma proteins; average of 3 concentrations) was 20.1%. The Reversie binding rate (plasma proteins; drug concentration 12.5 μg/ml) was 19.1%, the Reversie binding rate (plasma proteins; drug concentration 25 μg/ml) was 21.0% and the Reversie binding rate (plasma proteins; drug concentration 50 μg/ml) was 20.2%. It also gave a V d ([7]; oral) of 12.6 L, a t1/2β ([7]; oral) of 4.2 h and a Tmax ([7]; rhesus, monkey, urine, po, read-out: T max (Tmax1)) of 2 h. For the same molecule, the Cmax ([7]; rhesus, urine, oral) was 25.4 µM, the “Detection of prototype drug in blood, urine, tissues” value [8] was “prototype drug can not be detected in the tissues” and the CDK1 50% inhibitory concentration (CDK1) was 300 nM. The V d [9] was 12.6 L, the AUC(0-inf) [10] was 71.5 µM·h and the “Glucose aldehyde acid metabolism” value [11] was less than 5%.
For `CC(=O)c1c(O)c(CN2CCN(C)CC2)c2oc(-c3ccccc3)cc(=O)c2c1O` [CH-f, 6-Acetyl-5,7-dihydroxy-8-(4-methylpiperazin-1-ylmethyl)-2-phenyl-chromen-4-one], the BCS class [1] was “BCS I”, the “Solubility in water relative to BA-f” value ([1]; 37° C.) was “about 1000 times” and the “Solubility in Octanol relative to BA analogue” value ([1]; CH-j vs BA-j, CH-f vs BA-f, 37° C.) was “about 20 times”. The solubility [1, 14] was 5510 µg/mL (≈ 13500 µM), the solubility ([1]; water, 37° C., read-out: Solubility in H2O) was 564 µg/mL (≈ 1380 µM) and the logP (log P in Octanol/Water) was 0.99. The pKa (pKa) was 4.9, the “Level of NO, red fluorescence” value (MCF-7 and COS-7) was “stronger red fluorescence than CH-j in MCF-7” and the IC50 (H-460) was 5.6 ± 1.33 µM. For the same molecule, the IC50 (Hep G2) was 6.1 ± 1.45 µM, the IC50 (MCF-7 [3]) was 5.2 ± 1.24 µM and the IC50 (PC-3) was 5.1 ± 1.17 µM. For the same molecule, the IC50 (BGC-823) was 5.2 ± 1.21 µM, the “Anti-proliferative activity, times stronger than BA-j” value [4] was 2 times and the “Anti-proliferative activity, times stronger than Chrysin” value [4] was 5 times. For the same molecule, the IC50 [4] was 2.3 µg/mL, the IC50 ([4]; MTT, 48 h) was 5.6 µM and the “Apoptosis by Hoechst 33258 staining” value (MCF-7 [12]) was “apoptosis cell percentage in dose dependent increase”. For the same molecule, the Autophagy (MCF-7 [5]) was “can cause autophagy”, the Bcl-2 expression (Bcl-2) was “Bcl-2 expression can be suppressed” and the “CDK1 inhibition, times stronger than BA-j” value (CDK1) was “about 2 times”. It also gave a CDK1 50% inhibitory concentration (CDK1) of 130 nM.
In the case of `CN1CC[C@H](c2c(O)cc(O)c3c(=O)cc(-c4ccccc4Cl)oc23)[C@H](O)C1` [Flavopiridol], the “Intravenous drip steady plasma concentration” value [13] is listed as 0.27 µM.
